Results reported in patent US20070270464A1, “PRODRUGS OF CURCUMIN ANALOGS” (priority 2006, published 2007).

Columns and labels:
[1] = test system: DU-145 human prostate cancer cells; details: DU-145 cells, background statement; cited from earlier work
[2] = Photostability: appearance of aqueous solution under room light; assay type: physicochemical; details: EF24-GSH: after 48 hours under room light; EF24: diluted aqueous solution, overnight
[3] = test system: MDA-MB-435 breast cancer cells; assay: Photostability: cytotoxicity of solutions kept under room light, Neutral Red assay; assay type: cell-based, human; details: EF24-GSH: 10 mM in sterile water, up to 48 hours under room light, FIG. 3; EF24: diluted aqueous solution, overnight
Description: MDA-MB-435 breast cancer cells were seeded at 2×10^4 per well in a 96-well plate with DMEM medium supplemented with 10% FBS, plus antibiotics penicillin and streptomycin. After 24 hours, cells were treated with EF24-GSH in the presence of the above growth medium. EF24-GSH solutions were made fresh at 10 mM with sterile water and placed under room light in clear Eppendorf tubes for 30 min, 24 hours and 48 hours, respectively, before adding to the cells. Cell viability was determined after 48 hours of treatment with EF24-GSH conjugate using the Neutral Red assay.

tumor cell growth = details: background statement; cited from earlier work
[4] = background statement; cited from earlier work
[5] = test system: MDA-MB-231 human breast cancer cells; details: MDA-MB-231 cells, background statement; cited from earlier work
[6] = background statement; cited from earlier work; remark: listed apart in the source

colour of the solution under room light [2]: turns dark overnight
SMILES: CC(=O)O.O=C1C(=Cc2ccccc2F)CNCC1=Cc1ccccc1F [EF24, 3,5-Bis-(2-fluorobenzylidene)-piperidin-4-one, acetic acid salt]
cell cycle arrest [1]: G2/M arrest
cytotoxicity after exposure of the solution to room light [3]: severely compromised
inhibition of tumor cell growth, potency compared with cisplatin (tumor cell growth): higher potency than cisplatin
toxicity [4]: relatively little toxicity
cell cycle arrest [5]: G2/M arrest
photostability [6]: poor photostability
water solubility [6]: relatively insoluble in water
